Assay type in all cases: biochemical
Test [1] addresses T1, CYP98A3 (Arabidopsis thaliana, UniProt O22203).
T1 construct: full-length, untagged; transient expression in Nicotiana benthamiana leaves with TBSV P19, leaf microsomes (also yeast WAT11 microsomes)
T1 sequence (O22203 1-508): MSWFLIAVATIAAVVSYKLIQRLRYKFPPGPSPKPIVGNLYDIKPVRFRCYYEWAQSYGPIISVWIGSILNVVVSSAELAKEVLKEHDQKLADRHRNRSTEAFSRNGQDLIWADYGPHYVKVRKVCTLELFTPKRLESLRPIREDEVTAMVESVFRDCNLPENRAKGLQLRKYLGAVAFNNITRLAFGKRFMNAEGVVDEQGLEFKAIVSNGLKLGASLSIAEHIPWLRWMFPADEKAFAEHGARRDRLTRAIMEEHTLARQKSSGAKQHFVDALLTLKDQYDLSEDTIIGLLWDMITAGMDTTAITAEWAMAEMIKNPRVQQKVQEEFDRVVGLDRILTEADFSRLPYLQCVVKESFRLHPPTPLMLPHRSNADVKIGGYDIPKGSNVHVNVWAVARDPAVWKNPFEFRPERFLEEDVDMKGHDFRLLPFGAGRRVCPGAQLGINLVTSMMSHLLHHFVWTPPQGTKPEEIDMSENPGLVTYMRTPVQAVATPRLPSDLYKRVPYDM
Kind of test: HPLC and LC-MS of caffeoyl quinate formed by plant microsomes. The following applies: 100 μM substrate; 0.2 mM NADPH; pH 7.0; 28 °C; microsomes from N. benthamiana expressing the enzyme.

For test [2], the target named is T2, CYP98A22 (Ruta graveolens, UniProt H9LJF9).
T2 construct: full-length, 508 residues, untagged; transient expression in Nicotiana benthamiana leaves with TBSV P19, leaf microsomes
T2 sequence (H9LJF9 entry or part of it): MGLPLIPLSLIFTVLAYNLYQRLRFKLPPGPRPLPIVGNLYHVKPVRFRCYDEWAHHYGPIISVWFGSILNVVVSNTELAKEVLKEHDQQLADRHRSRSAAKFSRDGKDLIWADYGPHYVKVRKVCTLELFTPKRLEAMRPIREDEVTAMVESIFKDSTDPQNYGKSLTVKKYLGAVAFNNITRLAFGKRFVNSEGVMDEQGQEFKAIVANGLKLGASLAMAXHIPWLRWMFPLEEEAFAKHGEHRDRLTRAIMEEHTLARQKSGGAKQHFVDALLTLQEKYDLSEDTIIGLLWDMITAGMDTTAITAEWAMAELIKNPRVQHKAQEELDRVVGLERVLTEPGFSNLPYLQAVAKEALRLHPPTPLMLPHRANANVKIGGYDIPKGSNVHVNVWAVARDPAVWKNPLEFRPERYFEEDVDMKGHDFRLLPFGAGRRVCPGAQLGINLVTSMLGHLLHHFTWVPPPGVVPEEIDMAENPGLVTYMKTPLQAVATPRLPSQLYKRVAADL
Kind of test: LC-MS of caffeoyl quinate formed by plant microsomes. Particulars: 0.2 mM NADPH; 20 mM phosphate pH 7.0; 28 °C; 30 min; microsomes from N. benthamiana expressing the enzyme. The text has this:
LC-MS of caffeoyl quinate formed by plant microsomes on CYP98A22

The target of test [3] is T2, CYP98A22. Briefly: LC-MS of caffeoyl shikimate formed by plant microsomes. Particulars: 0.2 mM NADPH; 20 mM phosphate pH 7.0; 28 °C; 30 min; microsomes from N. benthamiana expressing the enzyme. From the text:
LC-MS of caffeoyl shikimate formed by plant microsomes on CYP98A22

Test [4] has as its target T1, CYP98A3. Briefly: HPLC and LC-MS of caffeoyl shikimate formed by plant microsomes. The following applies: 100 μM substrate; 0.2 mM NADPH; pH 7.0; 28 °C; microsomes from N. benthamiana expressing the enzyme.

For `O=C(/C=C/c1ccc(O)cc1)O[C@@H]1C[C@](O)(C(=O)O)C[C@@H](O)[C@H]1O` [p-coumaroyl quinate], at CYP98A3 [1], the “HPLC and LC-MS of caffeoyl quinate formed by plant microsomes” value was “both p-coumaroyl quinate and p-coumaroyl shikimate were hydroxylated to their caffeic counterparts”. The Km (in general, the substrate concentration at which the rate is half of its maximum) at CYP98A22 [2] was determined as 7 ± 5 µM.

With `O=C(/C=C/c1ccc(O)cc1)O[C@@H]1CC(C(=O)O)=C[C@@H](O)[C@H]1O` [p-coumaroyl shikimate], the Km on CYP98A22 [3] came to 24 ± 7 µM. The “HPLC and LC-MS of caffeoyl shikimate formed by plant microsomes” value on CYP98A3 [4] is “both p-coumaroyl quinate and p-coumaroyl shikimate were hydroxylated to their caffeic counterparts”.

Source of the values: publication PMC3493272, “CYP98A22, a phenolic ester 3’-hydroxylase specialized in the synthesis of chlorogenic acid, as a new tool for enhancing the furanocoumarin concentration in Ruta graveolens” (BMC Plant Biology, 2012).
